{
  "source": "patent US12351828B2",
  "about": "“Method for constructing hepatic progenitor cell-like cell bank, cell lines prepared therefrom and application thereof” (SHANGHAI CELLIVER BIOTECHNOLOGY CO., LTD., priority 2019, dated 2025)",
  "experiment_in_all_cases": "Erlotinib-specific hepatotoxicity, in vitro three-dimensional hepatocyte model, PrestoBlue cell viability",
  "format_in_all_cases": "cell-based, human",
  "key": {"[1]": {"tested_on": "sixth hepatocyte model line", "conditions": "co-cultured 48 hours, 0.24-250 μMol/L, FIG. 6f", "from_the_text": "(§1) The in vitro three-dimensional hepatocyte model is constructed by using the hepatic progenitor cell-like cell bank. The method for constructing the in vitro three-dimensional hepatocyte model is stated in the “Expansion and Differentiation of Human Hepatocyte-derived Liver Progenitor-like Cells and Their Use for the Study of Hepatotropic Pathogens” published in Volume 29, Issue 1, 2018, Cell Research, and is not repeated here. In the process of constructing the in vitro three-dimensional hepatocyte model, a first hepatocyte model line, a second hepatocyte model line, a third hepatocyte model line, a fourth hepatocyte model line, a fifth hepatocyte model line and a sixth hepatocyte model line are obtained by the first immortal hepatic progenitor cell-like cell line, the second immortal hepatic progenitor cell-like cell line, the third immortal hepatic progenitor cell-like cell line, the fourth immortal hepatic progenitor cell-like cell line, the fifth immortal hepatic progenitor cell-like cell line and the sixth immortal hepatic progenitor cell-like cell line, respectively.\n(§2) In the embodiment of the present invention, the specific toxic drug Erlotinib is used to characterize the specific hepatotoxicity of the in vitro three-dimensional hepatocyte model.\n(§3) Preparing a Erlotinib solutions with concentrations of 250 μMol/L, 62.5 μMol/L, 15.625 μMol/L, 3.9 μMol/L, 0.97 μMol/L, 0.24 μMol/L by dimethyl sulfoxide (DMSO), and using DMSO as a blank reference.\n(§4) Each hepatocyte model line in the in vitro three-dimensional hepatocyte model is co-cultured with different concentrations of Erlotinib aqueous solution for 48 hours.\n(§5) After the co-culture is completed, the PrestoBlue™ cell viability testing reagent produced by Life Technologies is used to characterize the Erlotinib-specific hepatotoxicity in each culture obtained after the co-culture, respectively. The specific methods for the co-culture and the characterization of the Erlotinib-specific hepatotoxicity are common methods known by those skilled in the art and will not be repeated here."}, "[2]": {"tested_on": "first hepatocyte model line", "conditions": "co-cultured 48 hours, 0.24-250 μMol/L, FIG. 6a", "from_the_text": "as §1, §2, §3, §4, §5"}, "[3]": {"tested_on": "fifth hepatocyte model line", "conditions": "co-cultured 48 hours, 0.24-250 μMol/L, FIG. 6e", "from_the_text": "as §1, §2, §3, §4, §5"}, "[4]": {"tested_on": "fourth hepatocyte model line", "conditions": "co-cultured 48 hours, 0.24-250 μMol/L, FIG. 6d", "from_the_text": "as §1, §2, §3, §4, §5"}, "[5]": {"tested_on": "second hepatocyte model line", "conditions": "co-cultured 48 hours, 0.24-250 μMol/L, FIG. 6b", "from_the_text": "as §1, §2, §3, §4, §5"}, "[6]": {"tested_on": "third hepatocyte model line", "conditions": "co-cultured 48 hours, 0.24-250 μMol/L, FIG. 6c", "from_the_text": "as §1, §2, §3, §4, §5"}},
  "data": [
    {"molecule": "C#Cc1cccc(Nc2ncnc3cc(OCCOC)c(OCCOC)cc23)c1", "note": "[Erlotinib]", "values": [
      {"measurement": "cell viability with the increase in the concentration of Erlotinib solution", "setting": "[1]", "result": "basically does not significant changed"},
      {"measurement": "cell viability with the increase in the concentration of Erlotinib solution", "setting": "[2]", "result": "basically does not significant changed"},
      {"measurement": "cell viability with the increase in the concentration of Erlotinib solution", "setting": "[3]", "result": "basically does not significant changed"},
      {"measurement": "cell viability with the increase in the concentration of Erlotinib solution", "setting": "[4]", "result": "significant downward trend"},
      {"measurement": "cell viability with the increase in the concentration of Erlotinib solution", "setting": "[5]", "result": "basically does not significant changed"},
      {"measurement": "cell viability with the increase in the concentration of Erlotinib solution", "setting": "[6]", "result": "significant downward trend"}
    ]}
  ]
}
